Laboratory results as given in ChEMBL document CHEMBL1201862, “PubChem BioAssay data set” (2004).
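Five concentrations, 48 hours, 96-well plates. Here, GI50 denotes the concentration required for 50% inhibition of growth.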 Active and inactive are the calls of the source. Rule as the data show it: active = GI50 up to about 1.1 µM and inactive = higher.

How the values were obtained:
Experiment in all cases: inhibition of tumour cell growth, NCI panel, 48 h
[1] = test system: OVCAR-5
[2] = test system: KM12
[3] = test system: RXF 393
[4] = test system: RPMI-8226
[5] = test system: 786-0
[6] = test system: HCT-15
[7] = test system: HOP-62
[8] = test system: UACC-62
[9] = test system: IGROV-1
[10] = test system: T47D
[11] = test system: Malme-3M
[12] = test system: NCI-H226
[13] = test system: NCI-H460
[14] = test system: HCT-116
[15] = test system: TK-10
[16] = test system: DU-145
[17] = test system: SF-268
[18] = test system: LOX IMVI
[19] = test system: MDA-MB-435
[20] = test system: UO-31

| Compound | GI50 [1] | GI50 [2] | GI50 [3] | GI50 [4] | GI50 [5] | GI50 [6] [µM] | GI50 [7] | GI50 [8] | GI50 [9] | GI50 [10] | GI50 [11] | GI50 [12] | GI50 [13] | GI50 [14] | GI50 [15] | GI50 [16] | GI50 [17] | GI50 [18] | GI50 [19] | GI50 [20] |
| --- | --- | --- | --- | --- | --- | --- | --- | --- | --- | --- | --- | --- | --- | --- | --- | --- | --- | --- | --- | --- |
| CCCCCC(CO)C(O)(C(F)(F)F)C(F)(F)F (stereo not given) | > 10 µM (inactive) | > 10 µM (inactive) | > 10 µM (inactive) | > 10 µM (inactive) | > 10 µM (inactive) | > 10 | > 10 µM (inactive) | > 10 µM (inactive) | > 10 µM (inactive) | > 10 µM (inactive) | > 10 µM (inactive) | > 10 µM (inactive) | > 10 µM (inactive) | > 10 µM (inactive) | > 10 µM (inactive) | > 10 µM (inactive) | > 10 µM (inactive) | > 10 µM (inactive) | > 10 µM (inactive) |  |
| O=C(CCC1CCCCN1)Nc1ccc2c(c1)C(=O)c1ccc(NC(=O)CCN3CCCCC3)cc1C2=O (stereo not given) | 2.34 µM (inactive) | 2.33 µM (inactive) | 0.776 µM (active) | 7.55 µM (inactive) | 9.75 µM (inactive) | 1.58 | 9.29 µM (inactive) | 1.22 µM (inactive) | 6.82 µM (inactive) | > 10 µM (inactive) | 1.43 µM (inactive) | 4.66 µM (inactive) | 4.17 µM (inactive) | 2.03 µM (inactive) | 1.22 µM (inactive) | > 10 µM (inactive) | 3.3 µM (inactive) | 1.21 µM (inactive) | > 10 µM (inactive) | 1.21 µM (inactive) |
| COc1ccc(C2SC(=N)Nc3c2c(C)nn3C(=O)c2ccc(Cl)cc2)cc1 (stereo not given) | > 10 µM (inactive) | > 10 µM (inactive) | > 10 µM (inactive) | > 10 µM (inactive) | > 10 µM (inactive) | > 10 | > 10 µM (inactive) | > 10 µM (inactive) | > 10 µM (inactive) | > 10 µM (inactive) | > 10 µM (inactive) | > 10 µM (inactive) | > 10 µM (inactive) | > 10 µM (inactive) | > 10 µM (inactive) | > 10 µM (inactive) | > 10 µM (inactive) | > 10 µM (inactive) | > 10 µM (inactive) |  |
| Fc1ccc2c(c1)nc1n2C(c2c(Cl)cccc2Cl)SC1 (stereo not given) | 15.5 µM (inactive) | 12 µM (inactive) | 17.3 µM (inactive) | 13.4 µM (inactive) | 16 µM (inactive) | 11.7 | 14.4 µM (inactive) | 11.8 µM (inactive) | 14.1 µM (inactive) | 14.2 µM (inactive) | 13 µM (inactive) | 17.3 µM (inactive) | 8.17 µM (inactive) | 6.41 µM (inactive) | 17.5 µM (inactive) | 16.4 µM (inactive) | 15.8 µM (inactive) | 15 µM (inactive) | 11.4 µM (inactive) | 15.4 µM (inactive) |
| Cc1nc2c(cc1OCc1ccccc1)C(=O)C1=C(C2=O)C2OC(=O)CC2OC1(C)C (stereo not given) | 0.973 µM (active) | 0.531 µM (active) | 0.349 µM (active) | 0.368 µM (active) | 0.3 µM (active) | 0.228 | 1.52 µM (inactive) | 0.174 µM (active) | 0.312 µM (active) | 0.288 µM (active) | 0.474 µM (active) | 1.09 µM (active) | 1.32 µM (inactive) | 0.28 µM (active) | 1.43 µM (inactive) | 1.71 µM (inactive) | 0.475 µM (active) | 0.215 µM (active) | 0.55 µM (active) | 1.68 µM (inactive) |
| COC1(C2c3ccccc3CCN2C(=O)OC(C)(C)C)C(=O)C(c2ccccc2)=C1N(C)C (stereo not given) | 74.5 µM (inactive) | 34.4 µM (inactive) | 30.2 µM (inactive) |  | 26.9 µM (inactive) | 30.9 | 37 µM (inactive) | 30.5 µM (inactive) |  | 53.7 µM (inactive) | 35.2 µM (inactive) | 19.7 µM (inactive) | 29.8 µM (inactive) | 25.7 µM (inactive) | 48.2 µM (inactive) | 55.8 µM (inactive) | 45.1 µM (inactive) |  | 22.9 µM (inactive) | 26.8 µM (inactive) |
| CN1CCN(c2ccc3nc(-c4cc(O)c5c(nc(CO)n5C)c4O)[nH]c3n2)CC1 | > 100 µM (inactive) | 54.2 µM (inactive) | 28.7 µM (inactive) | 22.6 µM (inactive) | 52.6 µM (inactive) | > 100 | 52 µM (inactive) | 11.6 µM (inactive) | 64.6 µM (inactive) | 18.7 µM (inactive) | 18.4 µM (inactive) | 22.7 µM (inactive) | 55.6 µM (inactive) | 41.9 µM (inactive) |  | 43.8 µM (inactive) | 48.1 µM (inactive) | 17.1 µM (inactive) | 18.7 µM (inactive) | 55.1 µM (inactive) |
| NNC(=O)C(O)C(O)C(O)CO (stereo not given) | > 100 µM (inactive) | > 100 µM (inactive) | > 100 µM (inactive) | > 100 µM (inactive) | > 100 µM (inactive) | > 100 | > 100 µM (inactive) | > 100 µM (inactive) | > 100 µM (inactive) | > 100 µM (inactive) | > 100 µM (inactive) | > 100 µM (inactive) | > 100 µM (inactive) | > 100 µM (inactive) | > 100 µM (inactive) | > 100 µM (inactive) | > 100 µM (inactive) | 88.9 µM (inactive) | > 100 µM (inactive) | > 100 µM (inactive) |
| CSc1c2c(C)n[nH]c2nn1-c1ccccc1 | > 100 µM (inactive) | 68.7 µM (inactive) | 30.6 µM (inactive) | > 100 µM (inactive) | 66.8 µM (inactive) | 37.2 |  | 68.1 µM (inactive) |  | 85.1 µM (inactive) | > 100 µM (inactive) | 58.5 µM (inactive) | > 100 µM (inactive) | 45.4 µM (inactive) | > 100 µM (inactive) | 88.3 µM (inactive) | 57.8 µM (inactive) | 24.1 µM (inactive) | > 100 µM (inactive) | 46.7 µM (inactive) |
| N#CC(=N)c1ncn(CCO)c1NC(=O)C(F)(F)F | > 100 µM (inactive) | > 100 µM (inactive) | > 100 µM (inactive) | > 100 µM (inactive) | > 100 µM (inactive) | > 100 | > 100 µM (inactive) | > 100 µM (inactive) | > 100 µM (inactive) | > 100 µM (inactive) | > 100 µM (inactive) | > 100 µM (inactive) | > 100 µM (inactive) | > 100 µM (inactive) | > 100 µM (inactive) | > 100 µM (inactive) | > 100 µM (inactive) | > 100 µM (inactive) | > 100 µM (inactive) |  |
| O=C1OC(c2ccccc2)=N/C1=C\c1ccc(Cl)cc1 | > 100 µM (inactive) | > 100 µM (inactive) | > 100 µM (inactive) | > 100 µM (inactive) | > 100 µM (inactive) | > 100 | > 100 µM (inactive) | > 100 µM (inactive) | > 100 µM (inactive) | > 100 µM (inactive) |  | > 100 µM (inactive) | > 100 µM (inactive) | > 100 µM (inactive) | > 100 µM (inactive) | > 100 µM (inactive) | > 100 µM (inactive) | > 100 µM (inactive) | > 100 µM (inactive) | > 100 µM (inactive) |
| COC(=O)C(NC(=O)CSc1nnc(COc2ccc(Cl)cc2)n1-c1ccccc1)C(C)C (stereo not given) | 28.8 µM (inactive) | 19.1 µM (inactive) | 24 µM (inactive) |  | 18.1 µM (inactive) | 36.7 | 18.6 µM (inactive) | 17.8 µM (inactive) | 16.3 µM (inactive) | 20.8 µM (inactive) | 16.5 µM (inactive) | 17 µM (inactive) | 33.2 µM (inactive) | 13 µM (inactive) | 15.6 µM (inactive) | 37.3 µM (inactive) | 20.7 µM (inactive) | 26.2 µM (inactive) | 19.9 µM (inactive) | 26.7 µM (inactive) |
| CCOC(=O)c1c(N2CCOCC2)[nH]c(=O)c(C(c2ccc(Cl)c([N+](=O)[O-])c2)c2c(O)c(C(=O)OCC)c(N3CCOCC3)[nH]c2=O)c1O | > 100 µM (inactive) | > 100 µM (inactive) | > 100 µM (inactive) | 26.7 µM (inactive) | 28.1 µM (inactive) | > 100 | 34.9 µM (inactive) | 40.1 µM (inactive) |  | 19.7 µM (inactive) | 41.4 µM (inactive) | > 100 µM (inactive) | > 100 µM (inactive) | 20.3 µM (inactive) | 39.9 µM (inactive) | 22.9 µM (inactive) | 44.2 µM (inactive) | 19.5 µM (inactive) | 30.6 µM (inactive) | 34 µM (inactive) |
| O=P(O)(O)OP(=O)(O)O | > 100 µM (inactive) | > 100 µM (inactive) | > 100 µM (inactive) | > 100 µM (inactive) | > 100 µM (inactive) | > 100 | > 100 µM (inactive) | > 100 µM (inactive) | > 100 µM (inactive) | > 100 µM (inactive) | > 100 µM (inactive) |  | > 100 µM (inactive) | > 100 µM (inactive) | > 100 µM (inactive) | > 100 µM (inactive) | > 100 µM (inactive) | > 100 µM (inactive) | > 100 µM (inactive) | > 100 µM (inactive) |
| CO[C@H]1C[C@](C)(O)Cc2cc3c(c(O)c21)C(=O)c1c(O)cc2c(c1C3=O)O[C@@H]1O[C@@]2(C)[C@H](O)[C@@H](N(C)C)[C@@H]1O | 3.35 µM (inactive) | 1.76 µM (inactive) | 1.17 µM (inactive) |  | 0.524 µM (active) | 1.23 | 0.181 µM (active) | 0.738 µM (active) | 2.32 µM (inactive) | 0.818 µM (active) | 1.09 µM (active) | 0.59 µM (active) | 0.0295 µM (active) | 0.652 µM (active) | 6.98 µM (inactive) | 0.536 µM (active) | 1.22 µM (inactive) |  | 1.73 µM (inactive) | 1.74 µM (inactive) |
